The values that follow are results of earlier work, collected in patent US6826488B1, “Crystals, molecular complexes, and methods of developing lead compounds for inhibitors of bacterial IMPDH” (The University of Chicago, priority 2000, dated 2004).

pKi: −log10 of the molar value. A value given as a limit tells only on which side of the number the result lay.

The target in series [1] is bacterial IMPDH enzymes. The conditions noted are these: bacterial enzymes inhibited by MPA only at very high concentrations.
Series [2] has as its system mammalian IMPDH enzymes. Conditions: mammalian relative to bacterial IMPDH enzymes.

For the compound `COc1c(C)c2c(c(O)c1C/C=C(\C)CCC(=O)O)C(=O)OC2` [MPA, Mycophenolic acid], in series [1], the pKi is less than 3.30. Besides, the “times more sensitive to inhibition (mammalian vs bacterial IMPDH enzymes)” value in series [2] is reported as 10-100 times.
